Assays:
Test in all cases: Test B pre-/postemergence plant response
Type in all cases: in vivo
wild oat (Avena fatua) = details: for Oat, Wild plant response rating: 8 g ai/ha
Outline: (§1)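 Visual scoring from 0 (no effect) to 100 (complete control) against untreated controls was done 13 to 15 days after greenhouse treatment. Chemicals were formulated in a surfactant-containing non-phytotoxic solvent and applied to soil preemergence or to 1- to 4-leaf (2-18 cm) plants postemergence.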

[1] = tested on: common ragweed (Ambrosia elation); details: for Ragweed plant response rating: 8 g ai/ha
Outline: as §1

[2] = tested on: surinam grass (Brachiaria decumbens); details: for Surinam Grass plant response rating: 8 g ai/ha
Outline: as §1

[3] = tested on: giant foxtail (Setaria faberii); details: for Foxtail, Giant plant response rating: 8 g ai/ha
Outline: as §1

[4] = tested on: bermudagrass (Cynodon dactylon); details: for Bermudagrass plant response rating: 8 g ai/ha
Outline: as §1

[5] = tested on: eastern black (E.B.) nightshade (Solanum ptycanthum); details: Preemergence
Outline: as §1

[6] = tested on: blackgrass (Alopecurus myosuroides)
Outline: as §1

kochia (Kochia scoparia) = details: for Kochia plant response rating: 8 g ai/ha
Outline: as §1

[7] = tested on: Italian ryegrass (Lolium multiflorum); details: for Ryegrass, Italian plant response rating: 8 g ai/ha
Outline: as §1

corn (Zea mays) = details: for Corn plant response rating: 8 g ai/ha
Outline: as §1

[8] = tested on: morningglory (Ipomoea coccinea); details: for Morningglory plant response rating: 8 g ai/ha
Outline: as §1

[9] = tested on: lambsquarters (Chenopodium album); details: for Lambsquarters plant response rating: 8 g ai/ha
Outline: as §1

[10] = tested on: johnsongrass (Sorghum halepense); details: for Johnsongrass plant response rating: 8 g ai/ha
Outline: as §1

[11] = tested on: yellow nutsedge (Cyperus esculentus); details: for Nutsedge, Yellow plant response rating: 8 g ai/ha
Outline: as §1

[12] = Postemergence, 16 g ai/ha, scale 0 to 100
[13] = Postemergence, 31 g ai/ha, scale 0 to 100
[14] = Postemergence, 62 g ai/ha, scale 0 to 100, 0 no effect, 100 complete control
[15] = Preemergence, 16 g ai/ha, scale 0 to 100 (0 no effect, 100 complete control)
[16] = Preemergence, 31 g ai/ha, scale 0 to 100 (0 no effect, 100 complete control)
[17] = Preemergence, 62 g ai/ha, scale 0 to 100
[18] = Preemergence, 31 g ai/ha, 0 to 100 scale, 0 no effect, 100 complete control

Structure (SMILES): Cn1ncc(O)c(-n2nc(-c3ccc(Cl)cc3)cc2C2CC2)c1=O [Compound 45]
- Oat, Wild plant response rating (wild oat (Avena fatua); postemergence, 0-100 scale): 90
- Plant response rating, Oat, Wild (wild oat (Avena fatua); [12]): 98
- Plant response rating, Oat, Wild (wild oat (Avena fatua); [13]): 100
- Plant response rating, Oat, Wild (wild oat (Avena fatua); [14]): 100
- Plant response rating, Oat, Wild (wild oat (Avena fatua); [15]): 80
- Plant response rating, Oat, Wild (wild oat (Avena fatua); [16]): 90
- Plant response rating, Oat, Wild (wild oat (Avena fatua); [17]): 95
- Oat, Wild plant response rating (wild oat (Avena fatua); Preemergence, scale 0 to 100): 15
- Ragweed plant response rating ([1]; postemergence, 0-100 scale): 0
- Plant response rating, Ragweed [1, 12]: 0
- Plant response rating, Ragweed [1, 13]: 0
- Plant response rating, Ragweed [1, 14]: 0
- Plant response rating, Ragweed [1, 15]: 0
- Plant response rating, Ragweed [1, 16]: 0
- Plant response rating, Ragweed [1, 17]: 0
- Ragweed plant response rating ([1]; Preemergence, scale 0 to 100): 0
- Surinam Grass plant response rating ([2]; postemergence, 0-100 scale): 75
- Plant response rating, Surinam Grass [2, 12]: 85
- Plant response rating, Surinam Grass [2, 13]: 98
- Plant response rating, Surinam Grass [2, 14]: 100
- Plant response rating, Surinam Grass [2, 15]: 20
- Plant response rating, Surinam Grass [2, 16]: 40
- Plant response rating, Surinam Grass ([2]; Preemergence, 62 g ai/ha, 0 to 100 scale, 0 no effect, 100 complete control): 90
- Surinam Grass plant response rating ([2]; Preemergence, scale 0 to 100): 0
- Foxtail, Giant plant response rating ([3]; postemergence, 0-100 scale): 90
- Plant response rating, Foxtail, Giant [3, 12]: 98
- Plant response rating, Foxtail, Giant [3, 13]: 100
- Plant response rating, Foxtail, Giant [3, 14]: 100
- Plant response rating, Foxtail, Giant [3, 15]: 0
- Plant response rating, Foxtail, Giant [3, 18]: 35
- Plant response rating, Foxtail, Giant [3, 17]: 45
- Foxtail, Giant plant response rating ([3]; Preemergence, scale 0 to 100): 0
- Bermudagrass plant response rating ([4]; postemergence, 0-100 scale): 60
- Plant response rating, Bermudagrass [4, 12]: 95
- Plant response rating, Bermudagrass [4, 13]: 98
- Plant response rating, Bermudagrass [4, 14]: 98
- Bermudagrass plant response rating ([4]; Preemergence, scale 0 to 100 (0 no effect, 100 complete control)): 0
- Plant response rating, Bermudagrass [4, 15]: 0
- Plant response rating, Bermudagrass [4, 18]: 0
- Plant response rating, Bermudagrass [4, 17]: 0
- Plant response rating, Nightshade, E. B. ([5]; 16 g ai/ha, scale 0 to 100 (0 no effect, 100 complete control)): 0
- Plant response rating, Nightshade, E. B. ([5]; 31 g ai/ha, scale 0 to 100 (0 no effect, 100 complete control)): 0
- Plant response rating, Nightshade, E. B. ([5]; 62 g ai/ha, scale 0 to 100): 0
- Nightshade, E. B. plant response rating ([5]; 8 g ai/ha, scale 0 to 100): 0
- Blackgrass plant response rating ([6]; 8 g ai/ha, postemergence, 0-100 scale): 0
- Plant response rating, Blackgrass [6, 12]: 20
- Plant response rating, Blackgrass [6, 13]: 85
- Plant response rating, Blackgrass [6, 14]: 90
- Plant response rating, Blackgrass [6, 15]: 98
- Plant response rating, Blackgrass [6, 18]: 100
- Plant response rating, Blackgrass [6, 17]: 100
- Kochia plant response rating (kochia (Kochia scoparia); postemergence, 0-100 scale): 0
- Plant response rating, Kochia (kochia (Kochia scoparia); [12]): 0
- Plant response rating, Kochia (kochia (Kochia scoparia); [13]): 0
- Plant response rating, Kochia (kochia (Kochia scoparia); [14]): 0
- Plant response rating, Kochia (kochia (Kochia scoparia); [15]): 0
- Plant response rating, Kochia (kochia (Kochia scoparia); [18]): 0
- Plant response rating, Kochia (kochia (Kochia scoparia); [17]): 0
- Kochia plant response rating (kochia (Kochia scoparia); Preemergence, scale 0 to 100): 0
- Ryegrass, Italian plant response rating ([7]; postemergence, 0-100 scale): 70
- Plant response rating, Ryegrass, Italian [7, 12]: 90
- Plant response rating, Ryegrass, Italian [7, 13]: 100
- Plant response rating, Ryegrass, Italian [7, 14]: 100
- Plant response rating, Ryegrass, Italian [7, 15]: 90
- Plant response rating, Ryegrass, Italian [7, 16]: 100
- Plant response rating, Ryegrass, Italian [7, 17]: 100
- Ryegrass, Italian plant response rating ([7]; Preemergence, scale 0 to 100): 0
- Corn plant response rating (corn (Zea mays); postemergence, 0-100 scale): 85
- Plant response rating, Corn (corn (Zea mays); [12]): 90
- Plant response rating, Corn (corn (Zea mays); [13]): 95
- Plant response rating, Corn (corn (Zea mays); [14]): 95
- Plant response rating, Corn (corn (Zea mays); [15]): 55
- Plant response rating, Corn (corn (Zea mays); [18]): 65
- Plant response rating, Corn (corn (Zea mays); [17]): 98
- Corn plant response rating (corn (Zea mays); Preemergence, scale 0 to 100): 0
- Morningglory plant response rating ([8]; postemergence, 0-100 scale): 0
- Plant response rating, Morningglory [8, 12]: 0
- Plant response rating, Morningglory [8, 13]: 0
- Plant response rating, Morningglory [8, 14]: 0
- Plant response rating, Morningglory [8, 15]: 0
- Plant response rating, Morningglory [8, 16]: 0
- Plant response rating, Morningglory [8, 17]: 0
- Morningglory plant response rating ([8]; Preemergence, scale 0 to 100): 0
- Lambsquarters plant response rating ([9]; postemergence, 0-100 scale): 0
- Plant response rating, Lambsquarters [9, 12]: 0
- Plant response rating, Lambsquarters [9, 13]: 0
- Plant response rating, Lambsquarters [9, 14]: 0
- Plant response rating, Lambsquarters [9, 15]: 0
- Plant response rating, Lambsquarters [9, 18]: 0
- Plant response rating, Lambsquarters [9, 17]: 0
- Lambsquarters plant response rating ([9]; Preemergence, scale 0 to 100): 0
- Johnsongrass plant response rating ([10]; postemergence, 0-100 scale): 60
- Plant response rating, Johnsongrass [10, 12]: 65
- Plant response rating, Johnsongrass [10, 13]: 65
- Plant response rating, Johnsongrass [10, 14]: 70
- Plant response rating, Johnsongrass [10, 15]: 20
- Plant response rating, Johnsongrass [10, 18]: 75
- Plant response rating, Johnsongrass [10, 17]: 98
- Johnsongrass plant response rating ([10]; Preemergence, scale 0 to 100): 15
- Nutsedge, Yellow plant response rating ([11]; postemergence, 0-100 scale): 0
- Plant response rating, Nutsedge, Yellow [11, 12]: 0
- Plant response rating, Nutsedge, Yellow [11, 13]: 0
- Plant response rating, Nutsedge, Yellow [11, 14]: 0
- Plant response rating, Nutsedge, Yellow [11, 15]: 0
- Plant response rating, Nutsedge, Yellow [11, 16]: 0
- Plant response rating, Nutsedge, Yellow [11, 17]: 0
- Nutsedge, Yellow plant response rating ([11]; Preemergence, scale 0 to 100): 0
